Measurements: ChEMBL document CHEMBL3988442, “University of Dundee, Small-Polar-MMV Screening Library” (2021)

Columns and labels:
[1] = microbe, parasite or virus in culture; details: Mycobacterium tuberculosis, 72 h, read-out: pIC50 (converted)
[2] = microbe, parasite or virus in culture; details: Mycobacterium tuberculosis, 96 h, read-out: pIC50 (converted)

| Compound | IC50 [1] [µM] | IC50 [2] [µM] |
| --- | --- | --- |
| CCN(CCS(=O)(=O)c1ccccc1)CC(=O)N(C)C | 130 | 126 |
| Cn1cc(NC(=O)CNC(=O)N2CCN(c3ccccc3)CC2)cn1 | > 50.1 | > 50.1 |
| O=S(=O)(CCN1CCC[C@H]1CO)c1ccccc1 | 198 | > 501 |
| CC(CO)(CO)NC(=O)c1cnc(-c2cccs2)s1 | > 501 | > 501 |
| Cc1cc(N(C)Cc2ccsc2)n2nc(C)c(C)c2n1 | 12.6 | 12.6 |
| Cn1cc(C(N)=O)c(NC(=O)c2ccc(Br)cc2)n1 | 257 | > 501 |
| CCS(=O)(=O)NCC(N)c1ccc(C(C)C)cc1 (configuration not stated) | 85.8 | 211 |
| CCNc1ncc(C(=O)N(C)Cc2ccsc2)cn1 | > 501 | > 501 |
| Clc1cccc2nc(N3CCNCC3)oc12 | 144 | 349 |
| CC(=O)N1CCN(Cc2cc(Br)c3c(c2)OCO3)CC1 | > 501 | 394 |
| CCOCC(=O)NCC1(O)CCCc2ccccc21 (configuration not stated) | 83.9 | 231 |
| CN(C)C(=O)c1csc(-c2ccccc2)n1 | > 501 | > 501 |
| CC(C)NC(=O)c1ccc(N2CCCCC2=O)cc1 | > 501 | > 501 |
| Cc1cccc(-c2nnc(C(C)N3CCn4c(C)nnc4C3)o2)c1 (configuration not stated) | > 50.1 | > 50.1 |
| CCC(N)C(=O)N1CCN(c2ccc(F)cc2Cl)CC1 (configuration not stated) | 322 | 266 |
| CC(C)C(NCC(N)=O)c1ccc(F)cc1 (configuration not stated) | > 501 | > 501 |
| Cn1ccnc1N1CCN(c2ccc(C#N)cn2)CC1 | > 501 | > 501 |
| O=C(NCCOCc1ccccc1)c1ccco1 | 249 | 245 |
| CSc1ncc(C(=O)N2CCN(c3ccccc3C)CC2C)cn1 (configuration not stated) | 16.4 | 18.3 |
| Cc1ccc(OCC(=O)NC2(C#N)CCSCC2)cc1C | 20.7 | 2.04 |
| CCOc1cccc(CCN)n1 | 234 | > 501 |
| O=C(Cn1ccc(C(F)(F)F)n1)NCc1ccco1 | > 501 | > 501 |

| Compound | IC50 [1] [µM] | IC50 [2] [µM] |
| --- | --- | --- |
| Cc1cc(CN(C)CC2(O)CCCN(CCC3CCCCC3)C2=O)no1 (configuration not stated) | > 50.1 | > 50.1 |
| C=C(C)CN1C(=O)Nc2ccccc2S1(=O)=O | 349 | > 501 |
| Cc1nnc(SCc2ccc(Cl)s2)n1CC(N)=O | > 501 | > 501 |
| CC1CCCN(S(=O)(=O)N(C)Cc2ccco2)C1 (configuration not stated) | > 501 | > 501 |
| COc1ccc([C@@H]2C[C@H](NC(C)=O)C[C@H](Cc3ccccc3)O2)cn1 | > 50.1 | 28.3 |
| OCCNCCNCc1ccc(-c2ccccc2)o1 | 159 | 29.2 |
| CCN(CC)S(=O)(=O)c1ccc(CNC(=O)c2cc(C)on2)cc1 | > 50.1 | 26.2 |
| Cc1ccc(-c2noc(C(C)N)n2)cc1F (configuration not stated) | 368 | 327 |
| CC(NCc1cccc2c1OCCO2)c1ccncc1 (configuration not stated) | 99.1 | 153 |
| c1nsnc1-c1nc(C2CCCO2)no1 (configuration not stated) | 118 | > 501 |
| O=C(Cn1cccn1)N1CCC(Cn2cc(-c3ccsc3)nn2)CC1 | > 50.1 | > 50.1 |
| Cc1noc(CNC(CCO)C(C)C)n1 (configuration not stated) | > 501 | > 501 |
| CCOC(=O)CNc1ccc(OC)cc1 | 124 | 335 |
| Cn1nccc1C(=O)N1CCC(Oc2ccccc2)C1 (configuration not stated) | 232 | 161 |
| O=C(c1cccnc1)N(CCO)Cc1cc(Br)ccc1F | > 50.1 | > 50.1 |
| CC(C)Oc1cccc(-c2cnn(CCC(N)=O)c2)c1 | 264 | 382 |
| CCn1nnnc1SCc1cc(C#N)ccc1F | 42.7 | 87.5 |
| Cc1nc(CN2CCCC(CCc3ccccc3C(F)(F)F)C2)no1 (configuration not stated) | 28.7 | 26.2 |
| Cc1nn(C)c(C)c1CN(CCO)C(=O)C1COc2ccccc2C1 (configuration not stated) | > 50.1 | > 50.1 |
| O=C(c1cccc2cn[nH]c12)N1CCCC1CO (configuration not stated) | > 501 | > 501 |
| CCC(c1nnc(SCC(=O)NCC(C)C)o1)N(C)C (configuration not stated) | 217 | 192 |
| O=C(COC(=O)c1cccs1)NCc1ccco1 | 204 | > 501 |

| Compound | IC50 [1] [µM] | IC50 [2] [µM] |
| --- | --- | --- |
| COCCN(Cc1cccs1)C(=O)CC1CCNC1 (configuration not stated) | 159 | 329 |
| OCC(CO)Nc1ccc2c(Cl)ccc(Cl)c2n1 | > 50.1 | > 50.1 |
| CCSc1nc2ccccc2c(=O)n1OCC(=O)OC | 24.9 | > 50.1 |
| CN1CC(=O)Nc2cccnc21 | 157 | 314 |
| Cc1cccc(NCCNC(=O)c2ccccc2)n1 | > 501 | > 501 |
| CCOc1ccc2cc(S(=O)(=O)NCCO)ccc2c1 | 5.84 | 9.01 |
| CCc1ccc(S(=O)(=O)N2CC[C@@H](N)C2)cc1CC | > 501 | > 501 |
| Cc1nc(N2CCCC2)nc2c1CCN(Cc1ccco1)CC2 | 4.72 | 4.23 |
| CC(NC(=O)c1ccc(Cl)c(I)c1)C(=O)N(C)C (configuration not stated) | > 501 | > 501 |
| NCCc1nc(C2CC2)cs1 | 91.5 | 103 |
| Cc1ccn(-c2ccc(NCc3ccccc3F)nn2)n1 | 32.8 | 7.29 |
| CCCOc1ccc(CNC(=O)c2cc[nH]n2)cn1 | 114 | > 501 |
| COc1ccc(NC(C(N)=O)c2ccc(Br)cc2)cn1 (configuration not stated) | 148 | 198 |
| O=C(CSCc1ccc(Cl)s1)N1CCOCC1 | 304 | 286 |
| COCc1cccc(C(=O)N2CCCC2)c1 | 16.3 | > 50.1 |
| O=C(NCc1cccs1)c1cnsn1 | 3.61 | 17.4 |
| O=C(c1cccs1)N1CC(Oc2ccccc2Cl)C1 | 26.7 | 42.8 |
| Cc1cc(N2CCNCC2)nc2ccccc12 | 140 | 93.7 |
| O=C(Cc1cccs1)Nc1cnn(C2CCOC2)c1 (configuration not stated) | > 50.1 | > 50.1 |
| Fc1cccc(-c2noc(C3CCCN3)n2)c1 (configuration not stated) | 271 | 286 |
| CCN1CCN(C(=O)c2ccc(C)c(C)c2)CC1 | > 501 | > 501 |
| O=C(NCC1(CO)CC1)OCc1ccccc1 | 149 | 149 |

| Compound | IC50 [1] [µM] | IC50 [2] [µM] |
| --- | --- | --- |
| O=C(NC1CCCNC1)c1coc2ccccc12 (configuration not stated) | > 501 | > 501 |
| CN(C)C(=O)c1cc(-c2cccs2)on1 | > 501 | 254 |
| CCNc1ncc(C(=O)N2CCCCC2)s1 | 377 | > 501 |
| CCc1ccc(C(=O)NCc2ccccn2)o1 | 40.5 | 138 |
| CCOCC(=O)NC(C)c1c(F)cccc1OC (configuration not stated) | 178 | 277 |
| CC(C)(C)c1ccc2c(c1)C(N)C(=O)N2 (configuration not stated) | 377 | 260 |
| CCOC(=O)c1ccc(N2CCC(CCO)CC2)nc1 | 84 | 198 |
| CCN(Cc1cnn(C)c1)C[C@H]1CC[C@@H](Cc2cccc(CN)c2)O1 | > 50.1 | > 50.1 |
| Cn1c(-c2ccccc2Cl)nc2cc(C(=O)NC(CO)CO)cnc21 | > 50.1 | > 50.1 |
| CC1CCN(C(CN)c2cccs2)CC1 (configuration not stated) | 217 | 263 |
| OCCOCCSc1n[nH]c(-c2cc(F)cc(F)c2)n1 | > 501 | > 501 |
| CCNC(=O)CNc1cc(C)c(Cl)cc1OC | 135 | > 501 |
| CCn1c(SCC(N)=O)nnc1-c1cc(Br)cs1 | 254 | 249 |
| Cc1ccccc1-n1nnnc1SCC(=O)NC1CC1 | 199 | > 501 |
| Cc1ccc(CNCCOc2ccccn2)o1 | > 501 | 98.7 |
| COc1ccc([S+]([O-])Cc2noc(C)n2)cc1 (configuration not stated) | 206 | 143 |
| O=C(c1[nH]nc(C2CC2)c1Cl)N1CCCC1 | > 50.1 | > 50.1 |
| CN(CCS(=O)(=O)c1ccc(Cl)cc1)CC(=O)N(C)C | 63.6 | 105 |
| CC(=O)NCCCNCc1ccc(Br)c2cccnc12 | 278 | > 501 |
| NCC1CCCN(c2ncccn2)C1 (configuration not stated) | 288 | > 501 |
| CC(CN1CCOCC1)NC(=O)c1csc(Br)c1 (configuration not stated) | 102 | 205 |
| O=C(NC1CCCOc2ccccc21)c1ccncc1 (configuration not stated) | > 501 | > 501 |

| Compound | IC50 [1] [µM] | IC50 [2] [µM] |
| --- | --- | --- |
| CC(=O)NCCCNCc1cccc(C#N)c1 | > 501 | > 501 |
| CCc1ccc(CN2CCOC(Cc3cccc(F)c3)C2)nc1 (configuration not stated) | 36.3 | 12.3 |
| NCc1nc(-c2ccc(F)cc2)c[nH]1 | 222 | > 501 |
| CCCC(=O)NC(C)(C)Cc1ccccc1OC | 3.52 | > 50.1 |
| CC(C)c1ccc(NC(=O)C2COCCN2C)cc1 (configuration not stated) | 151 | > 501 |
| CC(=O)NCc1ccc(C(=O)CSc2ccccn2)s1 | > 501 | > 501 |
| Cc1ccc(C(=O)NCc2ccnc(N(C)C)c2)s1 | 273 | > 501 |
| CCCc1nn(Cc2ccc(Br)s2)c(=O)o1 | 31.8 | 25.4 |
| NC(=O)c1ccsc1NC(=O)CCN1CCCC1 | 204 | 248 |
| CN(Cc1cccc(C(N)=O)c1)C(=O)c1occc1Br | > 501 | > 501 |
| CC(=O)N1CCc2onc(-c3ccc(F)c(F)c3)c2C1 | 393 | 262 |
| CCC(C)c1cc(C(=O)Nc2ncccc2O)on1 (configuration not stated) | 178 | 268 |
| CC1CN(CCC(=O)NCc2cccs2)CCCO1 (configuration not stated) | > 501 | > 501 |
| OCC(O)CSCc1ncc(-c2cccc(Cl)c2)o1 (configuration not stated) | 211 | > 501 |
| CN(C)C(CN)c1cccc(F)c1 (configuration not stated) | > 501 | > 501 |
| COc1ccc(NC(=O)NC(C)(C)C(C)(C)O)cc1 | 186 | > 501 |
| NCC(=O)N(Cc1cccs1)Cc1cccs1 | 114 | 68.7 |
| CS(=O)(=O)N1CCC(NCCSc2cnn[nH]2)CC1 | > 501 | > 501 |
